According to patent US20200216906A1, “METHODS AND COMPOSITIONS RELATING TO THE DIAGNOSIS AND TREATMENT OF CANCER” (PRESIDENT AND FELLOWS OF HARVARD COLLEGE, priority 2015, published 2020):
“Also recorded” adds a separate entry of the source. Like-named read-outs stand apart in the source and are kept apart here. One block for each molecule: values may come before it.

Experiments:
ABCG2 = molecular target: T1, ABCG2 (Homo sapiens, UniProt Q9UNQ0); conditions: Cusatis and Sparreboom, 2008; cited from earlier work
T1 sequence (Q9UNQ0 1-655): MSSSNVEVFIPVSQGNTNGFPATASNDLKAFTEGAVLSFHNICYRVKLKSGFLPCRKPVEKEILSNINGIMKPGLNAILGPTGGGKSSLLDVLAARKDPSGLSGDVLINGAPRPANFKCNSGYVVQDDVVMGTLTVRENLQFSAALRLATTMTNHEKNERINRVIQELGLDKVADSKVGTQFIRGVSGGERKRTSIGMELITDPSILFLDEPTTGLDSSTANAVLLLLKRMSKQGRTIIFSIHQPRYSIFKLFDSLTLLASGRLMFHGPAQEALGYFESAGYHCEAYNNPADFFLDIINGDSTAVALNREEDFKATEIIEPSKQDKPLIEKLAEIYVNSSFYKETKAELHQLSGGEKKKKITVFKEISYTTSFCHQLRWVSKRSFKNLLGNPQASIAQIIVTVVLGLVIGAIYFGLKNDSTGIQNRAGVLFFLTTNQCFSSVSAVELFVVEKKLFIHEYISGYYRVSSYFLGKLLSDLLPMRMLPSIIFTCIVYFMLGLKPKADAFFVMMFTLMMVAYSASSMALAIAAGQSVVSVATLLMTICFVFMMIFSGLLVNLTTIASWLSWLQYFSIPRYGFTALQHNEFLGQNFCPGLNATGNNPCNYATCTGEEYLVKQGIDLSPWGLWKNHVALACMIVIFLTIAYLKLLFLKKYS

[1] = system: Panc02.13 cells expressing the YAPS6A mutant; assay: 3D spheroid growth assay, Panc02.13 cells expressing YAPS6A; format: cell-based, human; conditions: YAP activity increased
[2] = system: patient-derived xenograft (PDX) models; assay: Patient-derived xenograft (PDX) models, tumor growth inhibition; format: in vivo, mouse; conditions: PDX models
Source text: An alternative to an endogenous mouse models for capturing effects of the tumor environment are patient-derived xenograft (PDX) models. […] At the cellular level, PDX models also preserve the intra-tumoral heterogeneity, as well as the molecular characteristics of the original cancer, including copy number variants, single-nucleotide polymorphisms, and gene expression profiles (Choi et al., 2014; DeRose et al., 2011). […] When patient-derived xenograft PDX models were used to assess whether YAP activation sensitizes solid tumors to gemcitabine significant effects were found. The studies were performed in the following manner: Tumor fragments (around 64 mm^3) were implanted into the flanks of recipient mice and tumor dimensions recorded with digital calipers. Once tumor implants reached a volume of approximately 200 mm3, dosing with gemcitabine (or vehicle control) began. At the completion of the study completion, the percent tumor growth inhibition (% TGI) was calculated for gemcitabine (G) and the vehicle control (C) using initial (i) and final (f) tumor measurements by the formula: % TGI=[1−(Gf−Gi)/(Cf−Ci)]x100.
Patient-derived xenograft (PDX) models. PDX models were established by Champions Oncology (Baltimore, Md.) as described previously (Khor et al., 2015). Drug response to 20 PDX models was obtained from Champions TumorGraft® Database (available on the world wide web at database.championsoncology.com/).
Immunohistochemistry. Human primary tumor tissue slides were obtained from Champions Oncology (Baltimore, Md.). Immunohistochemistry using anti YAP1 antibody (Abcam Cat # ab52771) was performed as previously described (Shi et al., 1999). For negative controls, primary antibody was omitted. The intensity of YAP staining was assessed by an independent pathologist using a four-grade scale: “0” is negative. “0.5” is borderline staining with no significance. “1” is weak staining. “1.5” is weak staining with foci of moderate staining. “2” is moderate staining. […] YAP scoring index was calculated based on staining intensity * % of positive target cells.

[3] = system: Panc02.13 cells expressing YAPS6A construct; assay: Kinetic cell growth assay, Panc02.13 cells expressing YAPS6A; format: cell-based, human; conditions: YAPS6A construct
Protocol: (§1) Panc02.13 cells were used to express YAPS6A (or vector controls) under sparse and dense cultures. Expression was confirmed by confocal microscopy (data not shown). Suppression of the Hippo pathway by expression of non-phospho, active form of YAP (YAPS6A) sensitized pancreatic cancer cells to gemcitabine and 5-FU (FIGS. 6 and 7). Apoptosis was measured by immunobloting with cleaved caspases 3/7 or PARP. Blots were also stained with anti-β-actin for loading control. The effect of Hippo pathway suppression on gemcitabine and 5-FU senstitization was maintained in 3D spheroid culture (FIG. 8). The effects of eleven cytotoxic drugs on the growth of Panc02.13 cells expressing vector only or YAPS6A construct grown under low or high densities were determined (Table 1).
(§2) The effect of gemcitabine on pancreatic cancer cell growth was studied using a kinetic cell growth assay. Pancreatic cancer cells were plated on 96-well plates (Essen ImageLock, Essen Instruments, MI, US) at varying densities (2-4×10^3 for low density or 15-20×10^3 for high density experiments). Small molecule inhibitors at different doses were added 24 hours after plating and cell confluence was monitored with Incucyte Live-Cell Imaging System and software (Essen Instruments). Confluence was observed every hour for 48-144h or until the control (DMSO only) samples reached 100% confluence.
Cell lines (Panc02.13, Panc10.05 or Miapaca2) were transfected with YAPS6A constructs (Addgene) using Lipofectamine™ (Invitrogen, Carlsbad, Calif.) following the manufacturer's instructions and 48 hour post-transfection selected in 5-10 μg/ml Blasticidin (InvivoGen, San Diego, Calif.). The clones screened for YAPS6A expression by Western blot. Stable cell lines were maintained in complete medium and 5 μg/ml Blasticidin.
as §2, with “Kinetic Cell growth assay. The” for “The”, “(2-4X103” for “(2-4×10^3”, “15-20X103” for “15-20×10^3”, “Incucyte™” for “Incucyte”

[4] = system: Panc02.13 cells expressing vector only (02.13-WT); assay: Kinetic cell growth assay, Panc02.13 cells expressing vector only; format: cell-based, human
Protocol: as §1, §2
as §2, with “Kinetic Cell growth assay. The” for “The”, “(2-4X103” for “(2-4×10^3”, “15-20X103” for “15-20×10^3”, “Incucyte™” for “Incucyte”

Panc02.13 cells = assay: 3D spheroid growth assay, Panc02.13 (GFP/parental) cells; conditions: Hippo-YAP pathway active
[5] = system: pancreatic cancer cell lines; assay: Kinetic cell growth assay, panel of pancreatic cancer cell lines; format: cell-based, human
Protocol: as §2
FIG. 20A illustrates the kinetic cell growth assay to determine the effect of gemcitabine in a panel of pancreatic cancer cell lines. Cells are plated at low crowding conditions (10-25% confluence) and 24 hours later exposed to gemcitabine in a dose-dependent manner. They are imaged every 1-3 hours until control (vehicle) treated cells reach 100% confluence. This assay is not confounded by the fact that the time required for each cell line to reach 100% confluence may be very different (as the cell lines have different doubling times). A dose response effect of gemcitabine on cell growth for 16 pancreatic cancer cell lines is shown in FIGS. 20B, 3, 31A-31C and 28, where the range of previous studies is also shown. […] Similar responses to gemcitabine were found in liver cancer cell lines (Huh7 and FOCUS) and untransformed (HEK293) cell lines (FIGS. 3, 31A-31C).
as §2, with “Kinetic Cell growth assay. The” for “The”, “(2-4X103” for “(2-4×10^3”, “15-20X103” for “15-20×10^3”, “Incucyte™” for “Incucyte”

[6] = Homo sapiens, high density, read-out: High density (EC50, nM) 02.13-YAPS6A
[7] = Homo sapiens, low density, read-out: Low density (EC50, nM) 02.13-YAPS6A
[8] = Homo sapiens, high density, read-out: High density (EC50, nM) 02.13-WT
[9] = Homo sapiens, low density, read-out: Low density (EC50, nM) 02.13-WT

SMILES: COc1cc([C@@H]2c3cc4c(cc3[C@@H](O[C@@H]3O[C@@H]5CO[C@@H](c6cccs6)O[C@H]5[C@H](O)[C@H]3O)[C@H]3COC(=O)[C@H]23)OCO4)cc(OC)c1O [teniposide]
Substrate of ABCG2 (ABCG2): substrates of ABCG2
Efficacy in inhibiting cell growth when the Hippo pathway was inhibited [1]: increased efficacy in inhibiting cell growth; also recorded: particularly significant inhibitory activity

SMILES: N.N.[Cl][Pt][Cl] [Cisplatin]
% TGI dependence on YAP activity [2]: not affected by YAP activity
EC50 ([3]; high density, read-out: High density (EC50, nM) 02.13-YAPS6A): > 10000 nM
EC50 ([3]; low density, read-out: Low density (EC50, nM) 02.13-YAPS6A): > 10000 nM
EC50 ([4]; high density, read-out: High density (EC50, nM) 02.13-WT): > 10000 nM
EC50 ([4]; low density, read-out: Low density (EC50, nM) 02.13-WT): > 10000 nM

SMILES: CN(Cc1cnc2nc(N)nc(N)c2n1)c1ccc(C(=O)N[C@@H](CCC(=O)O)C(=O)O)cc1 [methotrexate]
Substrate of ABCG2 (ABCG2): substrates of ABCG2
Efficacy in inhibiting cell growth when the Hippo pathway was inhibited [1]: increased efficacy in inhibiting cell growth; also recorded: particularly significant inhibitory activity

SMILES: N.N.O=C([O-])C1(C(=O)[O-])CCC1.[Pt+2] [carboplatin]
% TGI dependence on YAP activity [2]: not affected by YAP activity

SMILES: O=C1c2c(O)ccc(O)c2C(=O)c2c(NCCNCCO)ccc(NCCNCCO)c21 [mitoxantrone]
Substrate of ABCG2 (ABCG2): substrates of ABCG2
Efficacy in inhibiting cell growth when the Hippo pathway was inhibited [1]: increased efficacy in inhibiting cell growth; also recorded: particularly significant inhibitory activity

SMILES: CC[C@@]1(O)C(=O)OCc2c1cc1n(c2=O)Cc2cc3c(CN(C)C)c(O)ccc3nc2-1 [topotecan]
Substrate of ABCG2 (ABCG2): substrates of ABCG2
Efficacy in inhibiting cell growth when the Hippo pathway was inhibited [1]: increased efficacy in inhibiting cell growth

SMILES: Nc1nc(Cl)nc2c1ncn2[C@H]1C[C@H](O)[C@@H](CO)O1 [cladribine]
Substrate of ABCG2 (ABCG2): substrates of ABCG2
Efficacy in inhibiting cell growth when the Hippo pathway was inhibited [1]: increased efficacy in inhibiting cell growth; also recorded: particularly significant inhibitory activity

EC50 [3, 6]: 942 nM
EC50 [3, 7]: 383 nM
EC50 [4, 8]: 2600 nM
EC50 [4, 9]: 386 nM
SMILES: COc1cc([C@@H]2c3cc4c(cc3[C@@H](O[C@@H]3O[C@@H]5CO[C@@H](C)O[C@H]5[C@H](O)[C@H]3O)[C@H]3COC(=O)[C@H]23)OCO4)cc(OC)c1O [Etoposide]
Substrate of ABCG2 (ABCG2): substrates of ABCG2
Efficacy in inhibiting cell growth when the Hippo pathway was inhibited [1]: particularly significant inhibitory activity
Efficacy in inhibiting cell growth when the Hippo pathway was inhibited ([1]; listed as etopiside): increased efficacy in inhibiting cell growth

EC50 [3, 6]: 133 nM
EC50 [3, 7]: 68 nM
EC50 [4, 8]: 386 nM
EC50 [4, 9]: 35 nM
SMILES: COc1cccc2c1C(=O)c1c(O)c3c(c(O)c1C2=O)C[C@@](O)(C(=O)CO)C[C@@H]3O[C@H]1C[C@H](N)[C@H](O)[C@H](C)O1 [Doxorubicin]
Efficacy in inhibiting cell growth when the Hippo pathway was not inhibited (Panc02.13 cells): efficacious in inhibiting cell growth
Dependence of cellular response on cell crowding ([5]; seven PDAC cell lines, threshold >100 fold difference in EC50): dependent on cell crowding
Density dependence of efficacy ([5]; seven pancreatic cancer cell lines, sparse and dense conditions): density-dependent
Efficacy in inhibiting cell growth when the Hippo pathway was inhibited [1]: increased efficacy in inhibiting cell growth

SMILES: COc1cccc2c1C(=O)c1c(O)c3c(c(O)c1C2=O)C[C@@](O)(C(=O)CO)C[C@@H]3O[C@H]1C[C@H](N)[C@@H](O)[C@H](C)O1 [epirubicin]
Efficacy in inhibiting cell growth when the Hippo pathway was not inhibited (Panc02.13 cells): efficacious in inhibiting cell growth
Substrate of ABCG2 (ABCG2): substrates of ABCG2
Efficacy in inhibiting cell growth when the Hippo pathway was inhibited [1]: increased efficacy in inhibiting cell growth
